Source: patent publication US11421204B2, “Method of removing pluripotent cells from culture” (REPROCELL INCORPORATED, priority 2015, dated 2022)
“Also recorded” adds a separate entry of the source.

Experiments:
[1] = system: iPS cell (cell line 201B7); experiment: Evaluation of effects of ALA and/or SFC for iPS cell without photoirradiation (cell form); assay type: cell-based, human; conditions: ALA 1000 micro-M; observed 0, 4, 24, 48 hours after addition; no PDT
Description: As a pluripotent stem cell line, a human iPS cell line (iPSC) established at ReproCELL Inc. and subcultured 50 times was used. For on-feeder cultivation, the cell line of the pluripotent stem cell was maintained on mouse embryonic fibroblast (MEF) feeder cell (RCHEFC003, ReproCELL Inc.) processed by mitomycin C in a 60-mm polystyrene plate (dish) coated by ReproCoat (ReproCELL Inc.) with culture medium for pluripotent stem cells (Primate ES cell medium, RCHEMD001, ReproCELL Inc.) as like the conventional technique. ReproCoat was coated by using on a plate at the concentration of 0.2 micro-g/cm^2 and allowing to keep it at 4 degree-Celsius, overnight.
34 mg of ALA hydrochloride (M. W.=167.6, SBI Pharmaceuticals Co., Ltd.) was weighed, and 1000 micro-L of PBS (−) (Wako Pure Chemical Industries Ltd.) were added. Thereby, 200 mM ALA solution was prepared. The solution of the prepared ALA hydrochloride (hereinafter, it is only called as “ALA solution”) was stored on a freezer at −20 degree-C until use.

[2] = system: iPS cell (cell line 201B7); experiment: Evaluation of effects of ALA-PDT for iPS cell (cell form, ALP expression); assay type: cell-based, human; conditions: ALA 1000 micro-M and/or SFC 500 micro-M for 48 hours, blue LED 10 minutes, 24 hours afterward; Blue Alkaline Phosphatase Substrate Kit III
[3] = system: iPS cell (cell line 201B7); experiment: Comparison of effects by wavelength of photoirradiation of ALA-PDT for iPS cell; assay type: cell-based, human; conditions: ALA 100 or 1000 micro-M for 4 hours, red or blue LED 10 minutes, 24 hours afterward
Protocol: Then, the effect by the difference of the wavelength in the photoirradiation of ALA-PDT for a human iPS cell was compared.
Then, the cultured iPS cell was irradiated with red LED (wavelength of 635 nm) or blue LED (wavelength of 405 nm) for 10 minutes, and the cell form was observed 24 hours afterward.
Culture conditions were: used cell line: 201B7 and used culture-medium: Primate ES Cell Medium.

human iPS cell = experiment: Comparison of effects by ALA concentration of ALA-PDT for iPS cell (CCK8); assay type: cell-based
Protocol: Then, in ALA-PDT for the human iPS cell, the effects for changing the concentration of ALA were compared.
(§1) The iPS cell performed the passage process as well as an above-mentioned process was incubated for 2 to 4 minutes by using CTK (collagenase trypsin KSR) in 37 degree-C and then separated by pipetting.

[4] = system: normal human dermal fibroblast (HDF); experiment: Comparison of effects by ALA concentration of ALA-PDT for HDF (CCK8); assay type: cell-based; conditions: ALA 0-1000 micro-M, 4 hours, red LED 10 minutes, CCK8 24 hours afterward
Protocol: Also, the commercial normal human dermal fibroblast (CA106K05a, Cell Applications Inc., HDF) was used for comparative example(s).
as §1
About a normal human dermal fibroblast (HDF), based on the equivalent conditions as above-mentioned “comparison of effects by ALA hydrochloride concentration and photoirradiation of ALA-PDT for iPS cell”, the effects of the ALA concentration and ALA-PDT were compared.

[5] = system: neuron performed differentiation induction from the human iPS cell (ReproNeuro); experiment: Evaluation of effects of ALA-PDT for neuron originated from iPS cell; assay type: cell-based; conditions: red LED 10 minutes
Protocol: Then, the effects by ALA-PDT for the neuron performed differentiation induction from the human iPS cell (neuron originated from iPS cell) were evaluated. The used neuron was ReproNeuro. […] After that, the cell form was observed. Then, the cultured neuron was irradiated with red LED (wavelength of 635 nm) for 10 minutes, and the cell form was observed after 12-hour progresses (overnight). Then, it was exchanged the culture medium, which ALA was not included, and the cell form was observed after cultivating with exchanging the culture media for seven days.

[6] = system: hepatic cell originated from human iPS cell; experiment: Evaluation of effect of ALA-PDT for hepatic cells of iPS cell origin; assay type: cell-based
Protocol: The effect by ALA-PDT was evaluated for a hepatic cell originated from human iPS cell equivalent to the above-mentioned Example 1. At this example, the culture condition was plating 500,000 cells per well in a 24-well plate, then each concentration (0, 250, 500 micro-M) of ALA hydrochloride was added to the cell on the seventh day, photoirradiation was performed for 10 minutes by red LED 24 hours afterward, then form observation was carried out on the next day and after. The irradiation power of red LED was the same as that of above-mentioned case.

RC001 (iPS cell line) = experiment: ALA-PDT on iPS cell line RC001, cell survival by CCK8 (Example 2); assay type: cell-based, human; conditions: ALA hydrochloride 125-1000 micro-M, 4 or 24 hours, red LED 10 minutes, cell wraps r8-r10: SURVIVAL/PROLIFERATION SUPPRESSION
Protocol: (§2) As pluripotent stem cell lines, separately, for 201B7 cell line, which is equivalent as above-mentioned Example 1, and for RC001 and RC010 (ReproCELL Inc.), after maintaining as like above-mentioned Example 1, evaluations of the ALA effects were performed.
(§3) Then, each of them was cultivated with culture medium added ALA hydrochloride having concentration (0, 125, 250, 500, 1000 micro-M), respectively.

RC010 (iPS cell line) = experiment: ALA-PDT on iPS cell line RC010, cell survival by CCK8 (Example 2); assay type: cell-based, human; conditions: ALA hydrochloride 125-1000 micro-M, 4 or 24 hours, red LED 10 minutes, cell wraps r11-r13: SURVIVAL/PROLIFERATION SUPPRESSION
Protocol: as §2, §3

[7] = system: 201B7 cell line (iPS cell); experiment: ALA-PDT on iPS cell line 201B7, cell survival by CCK8 (Example 2); conditions: for rate of cell survival as compared with the control: 201B7
[8] = 250 micro-M ALA hydrochloride for 24 hours, red LED 10 minutes

Compound: NCC(=O)CCC(=O)O [ALA, delta-aminolevulinic acid]
- influence on the iPS cell (cell form, undifferentiated form) without photoirradiation [1]: influence on the iPS cell was not observed
- undifferentiated state by expression of ALP after ALA-PDT [2]: ALP became negative; also recorded: an undifferentiated iPS cell was no longer observed
- expression of ALP (undifferentiated state) after ALA-PDT, red vs blue LED [3]: it became impossible to maintain the undifferentiated state
- cell death of the iPS cell by ALA-PDT (human iPS cell; ALA concentration greater than or equal to 250 micro-M, 4 hours after addition red LED 10 minutes, CCK8 24 hours afterward): ≥ 60%
- cell death of iPS cell by ALA-PDT (human iPS cell; ALA concentration greater than or equal to about 100 micro-M, other experiment (not shown)): ≥ 10%
- induction of cell death of HDF by ALA-PDT (CCK8) [4]: induction of the cell death by ALA-PDT was not observed
- survival of neuron after ALA-PDT ([5]; ALA 250, 500 micro-M for 4 hours, cultivation continued for seven days): continued surviving without extinction and recovered as like the condition before ALA addition
- cell adhesion and neural spine seven days after ALA-PDT ([5]; seven days after adding 250 micro-M, 500 micro-M ALA): cell adhesion could be confirmed, and the neural spine was elongating in all of them
- form observation of hepatic cells 24 hours after LED irradiation [6, 8]: the cell with clear cobblestone morphology and nucleus remained
- form observation of hepatic cells 48 hours after LED irradiation [6, 8]: the cell with cobblestone morphology and nucleus continued surviving
- protection of hepatic cells from ALA-PDT ([6]; 250 micro-M ALA, preliminary experiment): it was protected
- survival of hepatic cells after ALA-PDT ([6]; ALA hydrochloride 250 and 500 micro-M, red LED 10 minutes, 24 and 60 hours after irradiation): survived under the various conditions of ALA-PDT were present
- state of survived hepatic cells, 250 micro-M versus 500 micro-M (visual inspection) ([6]; ALA hydrochloride 250 vs 500 micro-M, red LED 10 minutes): the state of the survived cells under the condition of 250 micro-M were better than that of 500 micro-M
- EFFECT BY ALA (RC001 (iPS cell line)): Survival and proliferation for each cell line were suppressed
- EFFECT BY ALA (RC010 (iPS cell line)): Survival and proliferation for each cell line were suppressed
- rate of cell survival as compared with the control ([7]; 250 micro-M ALA, after-addition time 4 hours, red LED 10 minutes, CCK8): 65%
- rate of cell survival as compared with the control ([7]; after-addition time 24 hours, red LED 10 minutes, CCK8): 7%
- EFFECT BY ALA ([7]; cell line 201B7, ALA hydrochloride 125-1000 micro-M, 4 or 24 hours, red LED 10 minutes, CCK8, cell wraps r5-r7: SURVIVAL/PROLIFERATION SUPPRESSION): Survival and proliferation for each cell line were suppressed
- rate of cell survival with after-addition time longer than 24 hours, compared with 24 hours ([7]; preliminary experiment): there is no change the rate of cell survival

Compound: sodium ferrous citrate [SFC]
- undifferentiated state by expression of ALP after ALA-PDT [2]: maintaining the undifferentiated-like state
